Activity calls are given as the source filed them. The calls are words filed in the database; no cut-off is given here.
Experiments:
SMMC-7721 [1] = assay: Induction of apoptosis in human SMMC-7721 cells assessed as necrotic cells at 2 uM incubated for 48 hrs by AnnexinV-FITC/PI staining based flow cytometry (reference value: 12.3%); format: functional
HepG2 [2] = assay: Induction of cell cycle arrest in human HepG2 cells assessed as downregulation of Cdc2 protein expression at 2 to 8 uM incubated for 48 hrs by western blot analysis; format: functional, cell-based; settings: dose 2-8 µM
HepG2 [3] = assay: Induction of cell cycle arrest in human HepG2 cells assessed as accumulation of cells at G2/M phase at 2 uM incubated for 48 hrs by PI staining based flow cytometry (reference value: 17.89%); format: functional
HepG2 [4] = assay: Induction of apoptosis in human HepG2 cells assessed as late apoptotic cells at 2 uM incubated for 48 hrs by AnnexinV-FITC/PI staining based flow cytometry (reference value: 3.23%); format: functional
SMMC-7721 [5] = assay: Induction of apoptosis in human SMMC-7721 cells assessed as late apoptotic cells at 8 uM incubated for 48 hrs by AnnexinV-FITC/PI staining based flow cytometry (reference value: 1.51%); format: functional
SMMC-7721 [6] = assay: Induction of cell cycle arrest in human SMMC-7721 cells assessed as downregulation of CDK4 protein expression at 2 to 8 uM incubated for 48 hrs by western blot analysis; format: functional, cell-based; settings: dose 2-8 µM
SMMC-7721 [7] = assay: Induction of cell cycle arrest in human SMMC-7721 cells assessed as accumulation of cells at S phase at 2 uM incubated for 48 hrs by PI staining based flow cytometry (reference value: 24.94%); format: functional
HepG2 [8] = assay: Potency index, ratio of Sorafenib IC50 to test compound IC50 for antiproliferative activity against human HepG2 cells; format: functional
HepG2 [9] = assay: Induction of cell cycle arrest in human HepG2 cells assessed as accumulation of cells at G0/G1 phase at 4 uM incubated for 48 hrs by PI staining based flow cytometry (reference value: 64.11%); format: functional
SMMC-7721 [10] = assay: Induction of apoptosis in human SMMC-7721 cells assessed as viable cells at 2 uM incubated for 48 hrs by AnnexinV-FITC/PI staining based flow cytometry (reference value: 85.1%); format: functional; settings: read-out: Activity
HepG2 [11] = assay: Induction of apoptosis in human HepG2 cells assessed as viable cells at 4 uM incubated for 48 hrs by AnnexinV-FITC/PI staining based flow cytometry (reference value: 91.1%); format: functional; settings: read-out: Activity
HepG2 [12] = assay: Induction of cell cycle arrest in human HepG2 cells assessed as accumulation of cells at S phase at 8 uM incubated for 48 hrs by PI staining based flow cytometry (reference value: 18%); format: functional
HepG2 [13] = assay: Induction of cell cycle arrest in human HepG2 cells assessed as accumulation of cells at S phase at 4 uM incubated for 48 hrs by PI staining based flow cytometry (reference value: 18%); format: functional
SMMC-7721 [14] = assay: Induction of cell cycle arrest in human SMMC-7721 cells assessed as downregulation of p34 protein expression at 2 to 8 uM incubated for 48 hrs by western blot analysis; format: functional, cell-based; settings: dose 2-8 µM
SMMC-7721 [15] = assay: Induction of cell cycle arrest in human SMMC-7721 cells assessed as accumulation of cells at G0/G1 phase at 8 uM incubated for 48 hrs by PI staining based flow cytometry (reference value: 59.57%); format: functional
SMMC-7721 [16] = assay: Induction of apoptosis in human SMMC-7721 cells assessed as early apoptotic cells at 4 uM incubated for 48 hrs by AnnexinV-FITC/PI staining based flow cytometry (reference value: 1.13%); format: functional
HepG2 [17] = assay: Induction of cell cycle arrest in human HepG2 cells assessed as downregulation of p34 protein expression at 2 to 8 uM incubated for 48 hrs by western blot analysis; format: functional, cell-based; settings: dose 2-8 µM
HepG2 [18] = assay: Induction of cell cycle arrest in human HepG2 cells assessed as accumulation of cells at S phase at 2 uM incubated for 48 hrs by PI staining based flow cytometry (reference value: 18%); format: functional
HepG2 [19] = assay: Induction of apoptosis in human HepG2 cells assessed as increase in number of detached cells with fewer cells at 2 to 8 uM incubated for 48 hrs by phase contrast microscopy; format: functional, cell-based; settings: dose 2-8 µM
SMMC-7721 [20] = assay: Induction of apoptosis in human SMMC-7721 cells assessed as early apoptotic cells at 8 uM incubated for 48 hrs by AnnexinV-FITC/PI staining based flow cytometry (reference value: 1.13%); format: functional
SMMC-7721 [21] = assay: Induction of cell cycle arrest in human SMMC-7721 cells assessed as accumulation of cells at G0/G1 phase at 2 uM incubated for 48 hrs by PI staining based flow cytometry (reference value: 59.57%); format: functional
HepG2 [22] = assay: Induction of apoptosis in human HepG2 cells assessed as necrotic cells at 4 uM incubated for 48 hrs by AnnexinV-FITC/PI staining based flow cytometry (reference value: 2.22%); format: functional
Hep 3B2 = assay: Antiproliferative activity against human Hep3B cells assessed as reduction in cell viability incubated for 48 hrs by MTT assay; format: functional, cell-based
SMMC-7721 [23] = assay: Induction of cell cycle arrest in human SMMC-7721 cells assessed as upregulation of p21 protein expression at 2 to 8 uM incubated for 48 hrs by western blot analysis; format: functional, cell-based; settings: dose 2-8 µM
SMMC-7721 [24] = assay: Induction of apoptosis in human SMMC-7721 cells assessed as viable cells at 8 uM incubated for 48 hrs by AnnexinV-FITC/PI staining based flow cytometry (reference value: 85.1%); format: functional; settings: read-out: Activity
HepG2 [25] = assay: Induction of apoptosis in human HepG2 cells assessed as early apoptotic cells at 8 uM incubated for 48 hrs by AnnexinV-FITC/PI staining based flow cytometry (reference value: 3.41%); format: functional

What does the source list for COc1ccc(-c2oc3c(CC=C(C)C)c(OCCN4CCCC4)cc(O)c3c(=O)c2O[C@H]2O[C@H](C)[C@@H](O)[C@H](O)[C@@H]2O)cc1?
Activity (SMMC-7721 [1]): 2.96%; Activity (HepG2 [2]): Active; Activity (HepG2 [3]): 17.51%; Activity (HepG2 [4]): 6.26%; Activity (SMMC-7721 [5]): 8.46%; Activity (SMMC-7721 [6]): Active; Activity (SMMC-7721 [7]): 23.71%; Ratio IC50 (HepG2 [8]): 2; Activity (HepG2 [9]): 80.03%; viability at 2 µM (SMMC-7721 [10]): 89.4%; viability at 4 µM (HepG2 [11]): 86.2%; Activity (HepG2 [12]): 2.47%; Activity (HepG2 [13]): 9.28%; Activity (SMMC-7721 [14]): Active; Activity (SMMC-7721 [15]): 78.65%; Activity (SMMC-7721 [16]): 2.54%; Activity (HepG2 [17]): Active; Activity (HepG2 [18]): 13.7%; Activity (HepG2 [19]): Active; Activity (SMMC-7721 [20]): 3.28%; Activity (SMMC-7721 [21]): 63.01%; Activity (HepG2 [22]): 3.21%; IC50 (Hep 3B2): 3.9 µM; Activity (SMMC-7721 [23]): Active; viability at 8 µM (SMMC-7721 [24]): 66.2%; Activity (HepG2 [25]): 3.42%

From ChEMBL document CHEMBL5226390, “Synthesis and Structure-Activity Analysis of Icaritin Derivatives as Potential Tumor Growth Inhibitors of Hepatocellular Carcinoma Cells” (J Nat Prod, 2023)
